Results on seven compounds are retold here after patent US5106407A, “Iodones and methods for antimicrobial use” (priority 1989, dated 1992).

In brackets after ≈: the same amount, converted by molar mass. Where two headings read alike, the source gives them in different places.

Holding throughout (test): minimum inhibitory concentration (MIC), agar dilution
Common to all, as to type: cell-based
For orientation: Agar dilution tests growth on a series of plates holding different concentrations.

The subject of experiment [1] is Bacillus subtilis. The procedure:
(§1) The minimum inhibitory concentration (MIC) for the compound of Example 19, i.e., (2-nitrophenyl)-iodonium 2,2-dimethyl-4,6-dioxo-1,3-dioxan-5-ylide was determined for 9 bacteria (using nutrient agar) and 5 yeast and fungi (using malt yeast agar). A one percent solution of this test compound (i.e., the compound of Example 19) was prepared in a mixture of acetone-water. Nutrient agar was prepared at pH 6.8 using deionized water according to standard Difco procedures. Malt yeast agar was prepared by adding 3 g Bacto yeast extract and 42 g Bacto Malt agar per liter of deionized water. The agar (nutrient agar when testing with bacteria and malt yeast agar when testing with yeast and fungi) was dispensed in 30 mL aliquots into 25×200 millimeter (mm) test tubes, capped and autoclaved for 15 min at 115° C. The test tubes containing the agar were cooled in a water bath until the temperature of the agar was 48° C. and then an appropriate amount of the one percent solution of the test compound was added (except in the controls where no test compound was added with the acetone-water) to the respective test tubes so that final concentrations of 500, 250, 100, 50, 25, 10, 5, 2.5, 1.0 and 0 parts per million (ppm) of the test compound in the agar were obtained. The agar solutions were each mixed and poured into individual petri plates so that each petri plate contained agar having a known concentration of test compound dispersed therein. After drying for 24 hr, the petri plates were inoculated with bacteria when the petri plates contained nutrient broth agar or with fungi and yeast when the petri plates contained malt yeast agar.
(§2) The inoculation with bacteria was accomplished using the following procedure. Twenty-four hr cultures of each of the bacteria were prepared by incubating the respective bacteria in tubes containing nutrient broth for 24 hr at 30° C. in a shaker. Dilutions of each of the 24 hr cultures were made so that 9 separate suspensions (one for each of the 9 test bacteria) were made, each containing about 10^8 colony forming units (CFU) per mL of suspension of a particular bacteria. Aliquots of 0.3 mL of each of the above suspensions were used to fill individual wells of a Steer's Replicator. For each microbial suspension, 0.3 mL was used to fill 3 wells (i.e., 3 wells of 0.3 mL each) so that for the 9 different bacteria 27 wells were filled. The Steer's Replicator was then used to inoculate the petri plates.
(§3) The petri plates were incubated at 30° C. for 48 hr and then read to determine if the test compound (i.e., the compound of Example 19) which was incorporated into the agar prevented growth of the respective bacteria. The minimum inhibitory concentration (MIC) for each bacteria was defined as the lowest concentration of the test compound which prevented growth of that bacteria.
(§4) In a similar procedure, the MIC (in ppm) of the compound of Example 11 (i.e., (2-nitrophenyl)-iodonium 2,6-dioxocyclohexylide) for various organisms was determined at an acid pH (about 6.8) and at an alkaline pH (about 8.2).
(§5) Using similar procedures, the MIC's (in ppm) of various compounds of Formula I and/or Formula II were determined for the organisms Enterobacter aerogenes and Bacillus subtilis in a neutral solution (pH about 6.8) and in an alkaline medium (pH about 8.2).

The test system of experiment [2] is Enterobacter aerogenes. As to the method:
as §1, §2, §3, §4, §5

Experiment [3] has as its system Escherichia coli. Conditions: ATCC 11229. As to the method:
as §1, §2, §3, §4

For experiment [4], the system named is Pseudomonas aeruginosa. Conditions: ATCC 10145. As to the method: as §1, §2, §3, §4
The subject of experiment [5] is Klebsiella pneumoniae. Conditions: ATCC 8308. The procedure:
as §1, §2, §3, §4

For experiment [6], the system named is Proteus vulgaris. Conditions: ATCC 881. As to the method:
as §1, §2, §3, §4

Experiment [7] relates to Staphylococcus aureus. Conditions: ATCC 8538. The procedure:
as §1, §2, §3, §4

The test system of experiment [8] is Salmonella choleraesuis. The procedure:
as §1, §2, §3, §4

In experiment [9] the test system is Pseudomonas aeruginosa PRD-10. Conditions: ATCC 15442. As to the method:
as §1, §2, §3, §4

The mark [10] stands for this setting: Bacillus subtilis, alkaline growth medium (pH = 8.2), read-out: MIC (ABS).
Setting [11] is: Bacillus subtilis, neutral growth medium (pH = 6.8), read-out: MIC (NBS).
The mark [12] stands for this setting: Klebsiella aerogenes, alkaline growth medium (pH = 8.2), read-out: MIC (AEA).
Where [13] appears, read: Klebsiella aerogenes, neutral growth medium (pH = 6.8), read-out: MIC (NEA).

Regarding `O=C1CCCC(=O)[C-]1[I+]c1ccccc1[N+](=O)[O-]` [Example 1, (2-nitrophenyl)-iodonium 2,6-dioxocyclohexylide], the MIC is ≤ 1.0 ppm in experiment [1] (ATCC 8473, Alkaline Medium (pH about 8.2)); ≤ 1 µg/mL in [1] (Bacillus subtilis, ATCC8473, ATCC 8473, Neutral Medium (pH about 6.8), read-out: MIC); ≤ 1.0 ppm in experiment [2] (ATCC 13048, Alkaline Medium (pH about 8.2)); ≤ 1 µg/mL in experiment [2] (Klebsiella aerogenes, ATCC13048, ATCC 13048, Neutral Medium (pH about 6.8), read-out: MIC); ≤ 1.0 ppm in [3] (Alkaline Medium (pH about 8.2)); ≤ 1 µg/mL in [3] (Escherichia coli, ATCC11229, Neutral Medium (pH about 6.8), read-out: MIC). The MIC is ≤ 1.0 ppm in experiment [4] (Alkaline Medium (pH about 8.2)); ≤ 1 µg/mL in experiment [4] (Pseudomonas aeruginosa, ATCC10145, Neutral Medium (pH about 6.8), read-out: MIC); ≤ 1.0 ppm in experiment [5] (Alkaline Medium (pH about 8.2)); ≤ 1 µg/mL in experiment [5] (Klebsiella pneumoniae, ATCC8308, Neutral Medium (pH about 6.8), read-out: MIC); ≤ 1.0 ppm in [6] (Alkaline Medium (pH about 8.2)); ≤ 1 µg/mL in experiment [6] (Proteus vulgaris, ATCC881, Neutral Medium (pH about 6.8), read-out: MIC). In addition, the MIC in experiment [7] (Alkaline Medium (pH about 8.2)) was ≤ 1.0 ppm; in [7] (Staphylococcus aureus, ATCC8538, Neutral Medium (pH about 6.8), read-out: MIC), ≤ 1 µg/mL; in experiment [8] (ATCC 10708, Alkaline Medium (pH about 8.2)), ≤ 1.0 ppm; in [8] (Salmonella enterica, ATCC 10708 / CHOLERAESUIS, Neutral Medium (pH about 6.8), read-out: MIC), ≤ 1 µg/mL; in experiment [9] (Alkaline Medium (pH about 8.2)), ≤ 1.0 ppm; in experiment [9] (Pseudomonas aeruginosa, ATCC15442, Neutral Medium (pH about 6.8), read-out: MIC) it was ≤ 1 µg/mL.

For `CS(=O)(=O)c1ccccc1[I+][c-]1c(=O)cc[nH]c1=O` [Example 42, ((2-Methylsulfonyl)phenyl)-iodonium 1,2,3,4-tetrahydro-2,4-dioxopyridine3-ylide], the MIC is 500 µg/mL (≈ 1280 µM) in experiment [1] (setting [10]), 500 µg/mL (≈ 1280 µM) in experiment [1] (setting [11]), > 500 µg/mL in experiment [2] (setting [12]) and 500 µg/mL (≈ 1280 µM) in experiment [2] (setting [13]).

For the compound `O=c1cc[nH]c(=O)[c-]1[I+]c1ccccc1[N+](=O)[O-]` [Example 43, (2-Nitrophenyl)-iodonium 1,2,3,4-tetrahydro-2,4-dioxopyridin-3-ylide], the MIC was 500 µg/mL (≈ 1400 µM) in [1] (setting [10]), 50 µg/mL (≈ 140 µM) in [1] (setting [11]), > 500 µg/mL in [2] (setting [12]) and 500 µg/mL (≈ 1400 µM) in experiment [2] (setting [13]).

As to `O=c1[nH]c(=O)[c-]([I+]c2ccccc2[N+](=O)[O-])c(=O)[nH]1` [Example 44, (2-Nitrophenyl)-iodonium hexahydro-2,4,6-trioxo-5-pyrimidin-1-ylide], the MIC in experiment [1] (setting [10]) was > 500 µg/mL; in [1] (setting [11]) it was 100 µg/mL (≈ 267 µM); in [2] (setting [12]), 500 µg/mL (≈ 1330 µM); in experiment [2] (setting [13]) it was 100 µg/mL (≈ 267 µM).

Consider `Cc1cc(=O)[c-]([I+]c2ccccc2S(C)(=O)=O)c(=O)o1` [Example 46, ((2-Methylsulfonyl)phenyl)-iodonium 3,4-dihydro-6-methyl-2,4-dioxo-2H-pyran-3-ylide], for which the MIC in experiment [1] (setting [10]) is ≤ 10 µg/mL; in experiment [1] (setting [11]), ≤ 10 µg/mL; in [2] (setting [12]), 50 µg/mL (≈ 123 µM); in [2] (setting [13]) it was 100 µg/mL (≈ 246 µM).

On to `Cc1cc(=O)[c-]([I+]c2ccccc2[N+](=O)[O-])c(=O)o1` [Example 47, (2-Nitrophenyl)-iodonium 3,4-dihydro-6-methyl-2,4-dioxo-2H-pyran-3-ylide], for which the MIC in experiment [1] (setting [10]) amounted to 500 µg/mL (≈ 1340 µM); in experiment [1] (setting [11]), 25 µg/mL (≈ 67 µM); in experiment [2] (setting [12]), 500 µg/mL (≈ 1340 µM); in experiment [2] (setting [13]) it was 100 µg/mL (≈ 268 µM).

On to `O=C1c2ccccc2C(=O)[C-]1[I+]c1ccccc1[N+](=O)[O-]` [Example 48, (2-Nitrophenyl)-iodonium 2,3-dihydro-1,3-dioxo-1H-indan-2-ylide], for which the MIC in experiment [1] (setting [10]) was 25 µg/mL (≈ 63.6 µM); in experiment [1] (setting [11]), ≤ 1 µg/mL; in experiment [2] (setting [12]), 250 µg/mL (≈ 636 µM); in experiment [2] (setting [13]) it was 50 µg/mL (≈ 127 µM).
